# Measured values: PubChem BioAssay (NCI)
# Where “and” joins values, the source holds several entries; their conditions need not be identical. Equal values may be shown once.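 Test compounds were applied to cells in 96-well plates for 48 hours at 5 doses. Here, GI50 denotes the concentration required for 50% inhibition of growth. TGI: concentration producing complete growth inhibition.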
# Columns and labels:
# Test in all cases: NCI anticancer screen, dose series, 48 h
# NCI-H23 lung = tested on: NCI-H23 lung
# LOX IMVI melanoma = tested on: LOX IMVI melanoma
# A549 NSCLC = tested on: A549 NSCLC
# SW-620 colon = tested on: SW-620 colon
# HCC-2998 colon = tested on: HCC-2998 colon
# SK-OV-3 ovarian = tested on: SK-OV-3 ovarian
# ACHN renal = tested on: ACHN renal
# OVCAR-5 ovarian = tested on: OVCAR-5 ovarian
# M14 melanoma = tested on: M14 melanoma
SMILES,GI50 (NCI-H23 lung),TGI (NCI-H23 lung),GI50 (LOX IMVI melanoma),TGI (LOX IMVI melanoma),GI50 (A549 NSCLC),TGI (A549 NSCLC),GI50 (SW-620 colon),TGI (SW-620 colon),GI50 (HCC-2998 colon),TGI (HCC-2998 colon),GI50 (SK-OV-3 ovarian),TGI (SK-OV-3 ovarian),GI50 (ACHN renal),TGI (ACHN renal),GI50 (OVCAR-5 ovarian),TGI (OVCAR-5 ovarian),GI50 (M14 melanoma),TGI (M14 melanoma)
CC(=O)OCC1OC(OC2CC3C(C)(C)C(O)CC[C@]3(C)C3CCC45CC4(CC[C@H]5C(C)CC(O)C4OC4(C)C)[C@]23C)C(O)C(O)C1O (some centres undefined),12.2 µM,16.5 µM and 27.5 µM,1.52 µM,12.1 µM and 3.17 µM,12.3 µM,18.5 µM and 27.1 µM,4.74 µM,16.5 µM and 16.9 µM,8.26 µM,13.8 µM and 21.3 µM,15.7 µM,15 µM and 29.2 µM,19.2 µM,15.5 µM and 33.6 µM,15.8 µM,16.1 µM and 29.2 µM,5.37 µM,16 µM and 17.2 µM
CCCCOC(=O)NC(=O)c1cn(CCSCCOC(=O)NCCCCCCNC(=O)OCCSCCn2cc(C(=O)NC(=O)OCCCC)c(=O)[nH]c2=O)c(=O)[nH]c1=O,,94.5 µM,,> 100 µM,,> 100 µM,,,,> 100 µM,,> 100 µM,,> 100 µM,,> 100 µM,,> 100 µM
NC(=O)C(c1ccccc1)N1CCOCC1 (centres undefined),,> 100 µM,,> 100 µM,,> 100 µM,,> 100 µM,,,,> 100 µM,,> 100 µM,,> 100 µM,,> 100 µM
c1ccc2c(c1)[nH]c1cnc3c4cccnc4[nH]c3c12,,62.1 µM,,45 µM,,34.7 µM,,32.3 µM,,34.5 µM,,,,23.4 µM,,40.3 µM,,30.1 µM
O=C(C(=O)N1CC2C=CC1CC2)c1c[nH]c2ccccc12 (centres undefined),,,,> 100 µM,,> 100 µM,,> 100 µM,,> 100 µM,,> 100 µM,,> 100 µM,,> 100 µM,,> 100 µM
O=C1c2c(n(Cc3ccccc3)c(=O)n2Cc2ccccc2)C(=O)N1Cc1ccccc1,,> 100 µM,,> 100 µM,,> 100 µM,,> 100 µM,,> 100 µM,,> 100 µM,,> 100 µM,,> 100 µM,,> 100 µM
COc1ccccc1NC(=O)C1=C(C)NC(C)=C(C(=O)Nc2ccccc2OC)C1c1ccc(C)cc1,,> 100 µM,,> 100 µM,,,,> 100 µM,,> 100 µM,,> 100 µM,,> 100 µM,,> 100 µM,,> 100 µM
O=C1C(=O)N(c2ccc(Cl)cc2Cl)C(=O)C(=O)C1c1nc2ccccc2o1,,> 100 µM,,,,> 100 µM,,> 100 µM,,> 100 µM,,> 100 µM,,> 100 µM,,> 100 µM,,> 100 µM
CC1=CCC23C(C1)OC(Br)(C=CC2(C)O)C3(C)C (centres undefined),,> 100 µM,,> 100 µM,,> 100 µM,,> 100 µM,,> 100 µM,,,,> 100 µM,,> 100 µM,,
CC(=O)CCCCO,,> 100 µM,,> 100 µM,,> 100 µM,,> 100 µM,,,,> 100 µM,,> 100 µM,,> 100 µM,,> 100 µM
O=C1CN(C(=O)c2ccccc2)Cc2[nH]c3ccccc3c21,,> 100 µM,,> 100 µM,,> 100 µM,,> 100 µM,,> 100 µM,,> 100 µM,,> 100 µM,,> 100 µM,,> 100 µM
CCOC(=O)C1SC(=Nc2ccc(Cl)c(Cl)c2)N=C1C (centres undefined),,> 100 µM,,63.9 µM,,> 100 µM,,> 100 µM,,> 100 µM,,> 100 µM,,> 100 µM,,> 100 µM,,> 100 µM
CN1CC(C(=O)C2C(=O)c3ccccc3C2=O)C(=O)C(=O)C(C(=O)C2C(=O)c3ccccc3C2=O)C1 (centres undefined),,> 100 µM,,> 100 µM,,> 100 µM,,> 100 µM,,> 100 µM,,> 100 µM,,> 100 µM,,> 100 µM,,> 10 µM
CC(C)(C)C(=O)ON1N=NC2C3CC(OCc4ccccc4)(OCc4ccccc4)C(O3)C21 (centres undefined),,43.4 µM,,32.8 µM,,> 100 µM,,50.7 µM,,31.2 µM,,> 100 µM,,91.5 µM,,> 100 µM,,85.7 µM
S=C1Nc2ccc(Cl)cc2C2(c3ccccc3)N3CCN=C3NN12 (centres undefined),> 100 µM,> 100 µM,17.6 µM,36.2 µM,> 100 µM,> 100 µM,29.2 µM,83.5 µM,67 µM,> 100 µM,> 100 µM,> 100 µM,55.9 µM,> 100 µM,82.7 µM,> 100 µM,39.9 µM,> 100 µM
COc1ccc(/C=C/C(=O)Oc2cc(O)cc(O)c2)cc1,,> 100 µM,,41.1 µM,,> 100 µM,,> 100 µM,,> 100 µM,,> 100 µM,,> 100 µM,,> 100 µM,,> 100 µM
Fc1ccc(C2SCc3nc4ccccc4n32)cc1 (centres undefined),,> 100 µM,,> 100 µM,,> 100 µM,,> 100 µM,,,,> 100 µM,,> 100 µM,,99.4 µM,,> 100 µM
COc1cc2c(cc1O)CC13CCC(=O)N1CCc1cc(OC)c(O)c-2c13 (centres undefined),,> 68.1 µM,,> 68.1 µM,,> 68.1 µM,,> 68.1 µM,,> 68.1 µM,,,,> 68.1 µM,,> 68.1 µM,,> 68.1 µM
